From BindingDB's records for patent US20240158369 (Wigen Biomedicine Technology (Shanghai), 2024) come the findings set out here.

This assay has as its target Wee1-like protein kinase (Homo sapiens, UniProt P30291). The assay can be described thus: In-Vitro Assay. Here is the method: The inhibitory effect of the compounds on the enzyme activity of recombinant protein Wee-1 was determined by HTRF. The procedures are as follows: After DMSO or serially diluted compounds (up to 200 nM, 1:5 diluted) and recombinant proteins were co-incubated in a kinase buffer at 37° C. for 30 min before Fluorescein-PolyGAT and ATP were added, and the reaction was initiated by addition of a substrate. After incubation at room temperature for 90 min, an antibody and a detection solution were added, and after further incubation at room temperature for 60 min, fluorescence values were detected (excitation wavelength: 340 nm, emission wavelengths: 495 and 520 nm). The 520 nm/495 nm fluorescence intensity ratio value was calculated, and compared with that of the DMSO group, and then the inhibition percentages and IC50 values of the compounds were calculated.

Chain of Wee1-like protein kinase (P30291 whole entry): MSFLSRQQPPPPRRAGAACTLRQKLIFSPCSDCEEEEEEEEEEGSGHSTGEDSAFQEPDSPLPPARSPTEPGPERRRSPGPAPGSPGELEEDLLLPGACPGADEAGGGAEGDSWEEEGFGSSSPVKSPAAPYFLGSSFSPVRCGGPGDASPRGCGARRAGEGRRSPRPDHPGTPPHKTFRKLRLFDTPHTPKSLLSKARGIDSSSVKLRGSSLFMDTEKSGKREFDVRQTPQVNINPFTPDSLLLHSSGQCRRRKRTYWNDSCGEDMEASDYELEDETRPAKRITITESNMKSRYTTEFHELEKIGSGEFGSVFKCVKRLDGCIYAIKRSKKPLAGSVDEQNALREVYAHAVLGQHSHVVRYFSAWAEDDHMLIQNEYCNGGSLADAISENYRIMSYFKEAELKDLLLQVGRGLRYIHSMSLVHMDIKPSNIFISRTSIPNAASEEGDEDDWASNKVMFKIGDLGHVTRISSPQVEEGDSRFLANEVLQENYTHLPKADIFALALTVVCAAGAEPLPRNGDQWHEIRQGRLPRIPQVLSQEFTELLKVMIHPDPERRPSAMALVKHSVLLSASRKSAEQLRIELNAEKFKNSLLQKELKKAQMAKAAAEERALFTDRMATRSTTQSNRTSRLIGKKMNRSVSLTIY

The IC50 is the concentration needed to halve the response being measured. Lower therefore signals greater potency in that assay. `CC(C)Cc1cc(Nc2ncc(C#N)c(Nc3cccc(N=S(C)(C)=O)n3)n2)cc2c1CCN(C)C2` [US20240158369, Compound 87] had an IC50 of less than 10 nM.
